Assay results: US20230087609A1, “USE OF A SOLUBLE GUANYLATE CYCLASE (sGC) STIMULATOR OR OF A COMBINATION OF A sGC STIMULATOR AND AN sGC ACTIVATOR FOR CONDITIONS WHEREIN THE HEME GROUP OF sGC IS OXIDIZED OR WHEREIN sGC IS DEFICIENT IN HEME” (Universiteit Maastricht, priority 2020, published 2023)

Biological target: T1, apo-sGC (sGCβ1 H105F knock-in) (Mus musculus, UniProt O54865, H105F)
T1 construct: from tissue; host or cells: lung homogenate of homozygous sGCβ1 H105F knock-in mice
T1 sequence (O54865 1-620 H105F): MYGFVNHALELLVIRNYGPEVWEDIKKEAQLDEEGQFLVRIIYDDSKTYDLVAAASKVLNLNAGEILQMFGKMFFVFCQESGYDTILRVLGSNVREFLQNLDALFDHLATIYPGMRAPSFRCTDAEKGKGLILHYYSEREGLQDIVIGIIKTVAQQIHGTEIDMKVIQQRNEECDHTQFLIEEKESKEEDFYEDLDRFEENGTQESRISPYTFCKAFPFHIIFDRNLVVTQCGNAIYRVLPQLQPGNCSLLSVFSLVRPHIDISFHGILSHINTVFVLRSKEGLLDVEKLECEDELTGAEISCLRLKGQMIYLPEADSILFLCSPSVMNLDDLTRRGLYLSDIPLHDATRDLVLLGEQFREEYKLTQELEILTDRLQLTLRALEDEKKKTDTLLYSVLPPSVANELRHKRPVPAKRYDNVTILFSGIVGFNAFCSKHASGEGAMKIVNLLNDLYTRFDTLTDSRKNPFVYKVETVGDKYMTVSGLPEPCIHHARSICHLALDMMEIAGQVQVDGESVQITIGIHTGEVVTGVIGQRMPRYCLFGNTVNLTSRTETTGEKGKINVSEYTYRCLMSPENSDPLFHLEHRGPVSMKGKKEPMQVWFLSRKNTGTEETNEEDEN
T1 sequence (Q9ERL9 1-691 partner): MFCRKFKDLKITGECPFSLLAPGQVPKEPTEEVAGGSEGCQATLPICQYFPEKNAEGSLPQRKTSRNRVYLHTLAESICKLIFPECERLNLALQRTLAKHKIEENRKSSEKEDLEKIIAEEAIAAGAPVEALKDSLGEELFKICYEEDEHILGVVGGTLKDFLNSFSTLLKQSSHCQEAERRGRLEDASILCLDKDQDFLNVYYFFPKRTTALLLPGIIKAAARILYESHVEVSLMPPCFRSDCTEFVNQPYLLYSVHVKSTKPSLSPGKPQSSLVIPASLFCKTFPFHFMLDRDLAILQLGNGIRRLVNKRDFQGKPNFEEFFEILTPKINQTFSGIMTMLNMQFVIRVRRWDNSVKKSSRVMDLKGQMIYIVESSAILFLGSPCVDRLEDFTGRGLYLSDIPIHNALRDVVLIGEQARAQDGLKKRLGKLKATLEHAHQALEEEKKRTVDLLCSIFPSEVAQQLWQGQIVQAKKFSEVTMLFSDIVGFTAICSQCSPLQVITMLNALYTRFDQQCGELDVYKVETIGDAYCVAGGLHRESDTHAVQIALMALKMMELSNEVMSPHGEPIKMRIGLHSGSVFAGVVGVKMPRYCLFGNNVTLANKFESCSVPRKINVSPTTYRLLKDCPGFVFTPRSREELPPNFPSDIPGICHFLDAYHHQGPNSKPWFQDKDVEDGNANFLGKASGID
Assay: sGC activity in lung homogenates of apo-sGC mice
Format: biochemical
Protocol: Adult male Sprague Dawley (SD) rats (age, 10-12 weeks) were obtained from Animal Resources Centre (Western Australia). Animals were housed on a 12 hour day/night cycle at a room temperature of 20±2° C., in the Department of Pharmacology Animal House, Monash University. The animals were fed standard rodent chow and water was available ad libitum. Homozygous male sGC(1^H105F knock-in mice (“apo-sGC mice”) were kindly provided by Tufts Medical Center, Molecular Cardiology Research Center, Boston, Mass., USA (Toonen et al., Nat Commun. 2015; 6:8482. doi: 10.1038/ncomms9482).
To measure sGC activity, cells were stimulated with 250 μM DEA/NO or 10 μM BAY58-2667 for 3 min at 37° C. Thereafter, cells were immediately lysed in 80% ethanol. Cells were scraped and, after evaporation of ethanol, re-suspended in assay buffer and sonicated. Measurement of sGC activity in crude homogenates of mouse tissue was performed as previously described (Nedvetsky et al., Brain Res. 2002; 950(1-2):148-154. doi: 10.1016/50006-8993(02)03015-9).[9] Briefly, all samples were measured as the formation of cGMP at 37° C. during 10 min in a total incubation volume of […] containing 50 mM triethanolamine-HCl (pH 7.4), 3 mM MgCl2, 3 mM glutathione (Carl Roth, Karlsruhe, Germany), 1 mM IBMX, […], 5 mM creatine phosphate, 0.25 mg/ml creatine kinase and 1 mM or 0.5 mM GTP. After adding sGC activator in the absence or presence of the sGC stimulator the reaction was started by application of GTP solution. Following incubation of each sample for 10 min the reaction was stopped by boiling for 10 min at 95° C. Thereafter the amount of cGMP was subsequently determined by a commercial enzyme immunoassay kit (Enzo Life Sciences, Lorrach, Germany or Biotrend, Cologne, Germany). In some experiments pre-incubation of freshly homogenized tissue with ODQ at 37° C. for 20 min prior measuring sGC activation was required.

cGMP formation on stimulation with the sGC stimulator (10 μM BAY 41-2272, in presence and in absence of 10 μM ODQ (FIG. 11)): cGMP is synthesized | sGC activity, response to compound alone (lung homogenates of apo-sGC mice, compound alone): can also be activated
Structure (SMILES): Nc1nc(-c2nn(Cc3ccccc3F)c3ncccc23)ncc1C1CC1 [BAY 41-2272, 5-cyclopropyl-2-[1-(2-fluoro-benzyl)-1H-pyrazolo[3,4-b]pyridin-3-yl]-pyrimidin-4-ylamine]
